Data as given in ChEMBL document CHEMBL1201862, “PubChem BioAssay data set” (2004).
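Method: 48-hour compound exposure of cells in 96-well plates, five concentrations, linear interpolation of endpoints. GI50: concentration for 50% inhibition of growth.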 Calls of active or inactive are those of the source. Rule as the data show it: active = GI50 up to about 1.1 µM and inactive = higher.

Assays:
Assay in all cases: DTP human tumour cell line panel, 48 h
CAKI-1 = test system: CAKI-1
SW-620 = test system: SW-620
HT-29 = test system: HT-29
DMS-114 = test system: DMS-114
CCRF-CEM = test system: CCRF-CEM
SF-268 = test system: SF-268
UO-31 = test system: UO-31
SK-MEL-28 = test system: SK-MEL-28
SNB-19 = test system: SNB-19
SN12C = test system: SN12C
A549 = test system: A549
786-0 = test system: 786-0
MOLT-4 = test system: MOLT-4
HOP-92 = test system: HOP-92
KM12 = test system: KM12
BT-549 = test system: BT-549
SR = test system: SR
T47D = test system: T47D
DU-145 = test system: DU-145
SK-MEL-5 = test system: SK-MEL-5

| SMILES | GI50 (CAKI-1) | GI50 (SW-620) | GI50 (HT-29) | GI50 (DMS-114) | GI50 (CCRF-CEM) | GI50 (SF-268) | GI50 (UO-31) | GI50 (SK-MEL-28) | GI50 (SNB-19) | GI50 (SN12C) | GI50 (A549) | GI50 (786-0) | GI50 (MOLT-4) | GI50 (HOP-92) | GI50 (KM12) | GI50 (BT-549) | GI50 (SR) | GI50 (T47D) | GI50 (DU-145) | GI50 (SK-MEL-5) |
| --- | --- | --- | --- | --- | --- | --- | --- | --- | --- | --- | --- | --- | --- | --- | --- | --- | --- | --- | --- | --- |
| CCCCCN(CCCCC)C(=O)[C@H](CCC(=O)O)NC(=O)c1cc2ccccc2[nH]1 | 51.9 µM (inactive) | > 100 µM (inactive) | 59.6 µM (inactive) | 52.5 µM (inactive) | 33.4 µM (inactive) | 33.9 µM (inactive) | 31 µM (inactive) | 29.8 µM (inactive) | 35.6 µM (inactive) | 48.5 µM (inactive) | 88.5 µM (inactive) | 92.7 µM (inactive) | 24.9 µM (inactive) | 32.3 µM (inactive) | 50.4 µM (inactive) | – | – | – | – | – |
| Cc1cccc2c(N)c3cccc(C(=O)NCC[N+]4(Cc5ccc([N+](=O)[O-])cc5)CCOCC4)c3nc12 | > 100 µM (inactive) | 44.2 µM (inactive) | 25.8 µM (inactive) | – | 26.1 µM (inactive) | 15.6 µM (inactive) | 48.2 µM (inactive) | 49.7 µM (inactive) | 18.2 µM (inactive) | 3.99 µM (inactive) | 31.5 µM (inactive) | 12.8 µM (inactive) | 13.5 µM (inactive) | 22.4 µM (inactive) | 37.8 µM (inactive) | 47.5 µM (inactive) | 20.8 µM (inactive) | 29.2 µM (inactive) | 27.3 µM (inactive) | 53.5 µM (inactive) |
| COc1cc2c(c(C)c1O)[C@H]1COc3ccccc3[C@H]1O2 | 9.04 µM (inactive) | 5.27 µM (inactive) | 17.7 µM (inactive) | 5.12 µM (inactive) | 13.6 µM (inactive) | 15.2 µM (inactive) | 8.51 µM (inactive) | 12.6 µM (inactive) | 1.49 µM (inactive) | – | 13.2 µM (inactive) | 16.6 µM (inactive) | 14.7 µM (inactive) | 19.5 µM (inactive) | 24.7 µM (inactive) | – | – | – | – | 10.8 µM (inactive) |
| O=c1nc2sc3ccc4ccccc4c3n2nc1O | – | 79.4 µM (inactive) | 47.9 µM (inactive) | 75.2 µM (inactive) | 40.1 µM (inactive) | 40.4 µM (inactive) | – | 40.4 µM (inactive) | 60.1 µM (inactive) | 86.5 µM (inactive) | > 100 µM (inactive) | > 10 µM (inactive) | 57.4 µM (inactive) | – | > 100 µM (inactive) | – | – | – | – | 43.8 µM (inactive) |
| Cc1cc(C)c([S@@](=O)O[C@@H]2[C@H]3OC(C)(C)O[C@H]3O[C@@H]2[C@H]2COC(C)(C)O2)c(C)c1 | 2.16 µM (inactive) | 20 µM (inactive) | 29.7 µM (inactive) | – | 25.2 µM (inactive) | 31.9 µM (inactive) | 17.6 µM (inactive) | 29.1 µM (inactive) | 40 µM (inactive) | 21 µM (inactive) | 29.4 µM (inactive) | 26.9 µM (inactive) | 17 µM (inactive) | 16.6 µM (inactive) | 18.2 µM (inactive) | 15.1 µM (inactive) | 15.6 µM (inactive) | 37.5 µM (inactive) | 29.1 µM (inactive) | 31.2 µM (inactive) |
| O=C1/C(=C/c2ccccc2Cl)COc2ccc(Br)cc21 | – | 23.8 µM (inactive) | > 100 µM (inactive) | 38.3 µM (inactive) | 4.49 µM (inactive) | > 100 µM (inactive) | 55.7 µM (inactive) | > 100 µM (inactive) | – | – | 97.3 µM (inactive) | 37.4 µM (inactive) | 18 µM (inactive) | 46.3 µM (inactive) | 22.4 µM (inactive) | – | – | – | – | – |
| N#Cc1cnc(N)nc1NCC1(CO)CC(CCc2ccccc2)C1 (stereo not drawn) | > 100 µM (inactive) | > 100 µM (inactive) | > 100 µM (inactive) | – | > 100 µM (inactive) | > 55.6 µM (inactive) | 20.3 µM (inactive) | > 100 µM (inactive) | 55.3 µM (inactive) | > 100 µM (inactive) | 14.3 µM (inactive) | > 85.5 µM (inactive) | 3.15 µM (inactive) | 19.7 µM (inactive) | > 85.5 µM (inactive) | > 100 µM (inactive) | 20.1 µM (inactive) | 0.301 µM (active) | > 100 µM (inactive) | 1.72 µM (inactive) |
| O=c1c2ccccc2nc2n1NC(c1c(Cl)cccc1Cl)N2c1cccc(Cl)c1 (stereo not drawn) | 10.8 µM (inactive) | 3.32 µM (inactive) | 6.73 µM (inactive) | – | > 100 µM (inactive) | 11.9 µM (inactive) | 2.38 µM (inactive) | 12.7 µM (inactive) | 4.43 µM (inactive) | 4.71 µM (inactive) | 5.2 µM (inactive) | 2.1 µM (inactive) | > 100 µM (inactive) | 4.52 µM (inactive) | 7.24 µM (inactive) | 51.4 µM (inactive) | 8.55 µM (inactive) | 5.56 µM (inactive) | 11.4 µM (inactive) | 16.6 µM (inactive) |
| O=C(O)c1ccccc1CC1Cc2ccccc2C1=O (stereo not drawn) | > 100 µM (inactive) | > 100 µM (inactive) | > 100 µM (inactive) | – | > 100 µM (inactive) | > 100 µM (inactive) | > 100 µM (inactive) | > 100 µM (inactive) | > 100 µM (inactive) | > 100 µM (inactive) | > 100 µM (inactive) | > 100 µM (inactive) | > 100 µM (inactive) | > 100 µM (inactive) | > 100 µM (inactive) | > 100 µM (inactive) | > 100 µM (inactive) | > 100 µM (inactive) | > 100 µM (inactive) | > 100 µM (inactive) |
| c1ccc(COc2cccc3cccnc23)cc1 | – | > 100 µM (inactive) | 80.9 µM (inactive) | 36.3 µM (inactive) | 31.5 µM (inactive) | 28.4 µM (inactive) | 56.9 µM (inactive) | > 100 µM (inactive) | > 100 µM (inactive) | > 100 µM (inactive) | > 100 µM (inactive) | > 100 µM (inactive) | > 100 µM (inactive) | 28.4 µM (inactive) | 61.4 µM (inactive) | – | – | – | – | 50.2 µM (inactive) |
| N#Cc1c2c(c(Nc3ccc(Cl)cc3)n3c1nc1ccccc13)CCCC2 | 36.5 µM (inactive) | > 61 µM (inactive) | 18.5 µM (inactive) | – | 34.6 µM (inactive) | 44 µM (inactive) | > 51.2 µM (inactive) | > 76 µM (inactive) | 23.1 µM (inactive) | 65.9 µM (inactive) | 43 µM (inactive) | 26.9 µM (inactive) | 3.18 µM (inactive) | > 37.4 µM (inactive) | 20.3 µM (inactive) | > 70.1 µM (inactive) | 17 µM (inactive) | 33.1 µM (inactive) | > 69.2 µM (inactive) | 20.5 µM (inactive) |
| O=C1CSC(c2cccc([N+](=O)[O-])c2)N1c1ccc(-c2ccc(-n3c(-c4ccccc4)nc4ccccc4c3=O)cc2)cc1 (stereo not drawn) | > 100 µM (inactive) | 40 µM (inactive) | 33.4 µM (inactive) | – | 23 µM (inactive) | 41.1 µM (inactive) | 18.5 µM (inactive) | 43.6 µM (inactive) | 59.6 µM (inactive) | 48.6 µM (inactive) | 34.6 µM (inactive) | 24.6 µM (inactive) | 17.2 µM (inactive) | > 100 µM (inactive) | 21.8 µM (inactive) | 23.3 µM (inactive) | 19.7 µM (inactive) | 17.9 µM (inactive) | 38.4 µM (inactive) | 29.1 µM (inactive) |
| Cc1ccc(NC(=O)CC(=O)N2N=C(N3CCCCC3)CC2c2ccccc2)cc1 (stereo not drawn) | > 100 µM (inactive) | > 100 µM (inactive) | > 100 µM (inactive) | – | > 100 µM (inactive) | > 100 µM (inactive) | > 100 µM (inactive) | > 100 µM (inactive) | > 100 µM (inactive) | > 100 µM (inactive) | > 100 µM (inactive) | > 100 µM (inactive) | > 100 µM (inactive) | > 100 µM (inactive) | > 100 µM (inactive) | > 100 µM (inactive) | > 100 µM (inactive) | > 100 µM (inactive) | > 100 µM (inactive) | > 100 µM (inactive) |
| CCCc1nc(NC#N)nc(C(=O)Nc2ccccc2)c1CC | > 100 µM (inactive) | > 100 µM (inactive) | > 100 µM (inactive) | > 100 µM (inactive) | – | > 100 µM (inactive) | > 100 µM (inactive) | > 100 µM (inactive) | > 100 µM (inactive) | > 100 µM (inactive) | > 100 µM (inactive) | > 100 µM (inactive) | > 100 µM (inactive) | > 100 µM (inactive) | > 100 µM (inactive) | – | – | – | – | > 100 µM (inactive) |
| CCOc1ccc(/N=C/c2c3ccccc3nc3ccccc23)cc1 | 58.2 µM (inactive) | 31.3 µM (inactive) | 21.8 µM (inactive) | 25.1 µM (inactive) | 3.59 µM (inactive) | 71 µM (inactive) | 98.6 µM (inactive) | > 100 µM (inactive) | 73.8 µM (inactive) | > 100 µM (inactive) | 74.6 µM (inactive) | 39.7 µM (inactive) | 4.25 µM (inactive) | > 100 µM (inactive) | 4.33 µM (inactive) | – | – | – | – | 38.9 µM (inactive) |
| C#CCOCn1cnc2c(S)ncnc21 | > 100 µM (inactive) | > 100 µM (inactive) | > 100 µM (inactive) | > 100 µM (inactive) | > 100 µM (inactive) | > 100 µM (inactive) | > 100 µM (inactive) | > 100 µM (inactive) | > 100 µM (inactive) | > 100 µM (inactive) | > 100 µM (inactive) | > 100 µM (inactive) | – | > 100 µM (inactive) | > 100 µM (inactive) | – | – | – | – | > 100 µM (inactive) |
